According to article PMC10739246 (ACS Bio & Med Chem Au, 2023):
≈ marks a conversion by molar mass, not a printed value. Entries after “also recorded” stand apart in the source; their conditions may differ. Like-named read-outs stand apart in the source and are kept apart here.

What was measured:
E. coli (W3110) = test: MIC, microdilution, E. coli W3110; format: cell-based, Escherichia coli; conditions: Escherichia coli
[1] = system: norfloxacin-resistant clinical isolate of E. coli; test: MIC, microdilution, norfloxacin-resistant clinical isolate of E. coli; format: cell-based, Escherichia coli; conditions: Escherichia coli, read-out: MIC E. coli (norfloxacin-resistant strain)
P. aeruginosa (PAO1) = test: MIC, microdilution, P. aeruginosa PAO1; format: cell-based, Pseudomonas aeruginosa; conditions: Pseudomonas aeruginosa, PAO1
[2] = system: K. pneumoniae (ATCC 10031); test: MIC, K. pneumoniae ATCC 10031; format: cell-based, Klebsiella pneumoniae; conditions: Klebsiella pneumoniae, ATCC10031
S. aureus (CCUG1800T) = test: MIC, microdilution, S. aureus CCUG1800T; format: cell-based, Staphylococcus aureus; conditions: Staphylococcus aureus
[3] = system: S. aureus (ATCC 43300) MRSA; test: MIC, microdilution, MRSA ATCC 43300; format: cell-based, Staphylococcus aureus; conditions: Staphylococcus aureus; norfloxacin-resistant strain
E. faecalis (ATCC 19433) = test: MIC, E. faecalis ATCC 19433; format: cell-based, Enterococcus faecalis; conditions: Enterococcus faecalis, ATCC19433
[4] = system: M. tuberculosis (MC26020); test: microbe, parasite or virus in culture; format: cell-based, Mycobacterium tuberculosis; conditions: Mycobacterium tuberculosis, read-out: MIC M. tuberculosis (MC26020)
E. coli DNA gyrase = target: T1, E. coli DNA gyrase (Escherichia coli, UniProt P0AES4+P0AES6); test: In vitro DNA gyrase cleavage assay; format: biochemical
T1 construct: purchased Inspiralis

E. coli topoisomerase IV = target: T2, E. coli topoisomerase IV (Escherichia coli, UniProt P0AFI2+P20083); test: In vitro topoisomerase IV cleavage assay; format: biochemical; conditions: read-out: % topoisomerase IV inhibition
T2 construct: purchased Inspiralis

E. coli W3110 = test: Bacterial cytological profiling (BCP) in E. coli W3110; format: cell-based, Escherichia coli
B. subtilis DSM402 [5] = test: Bacterial cytological profiling (BCP) in B. subtilis DSM402; format: cell-based, Bacillus subtilis
MreB in B. subtilis MW10 = test: MreB mobility assay; format: cell-based, Bacillus subtilis; conditions: B. subtilis MW10, 1 h of antibiotic exposure
Procedure: MreB is an actin homologue that forms filamentous structures along the lateral axis of the cell. It moves along the length of the cells in a spiraling pattern thereby driving lateral peptidoglycan synthesis.[36],[37] MreB mobility is sensitive to inhibition of peptidoglycan synthesis and so far, every cell wall synthesis inhibitor we tested abolished MreB movement (see Figure S70 for examples).
Expression of msfGFP-MreB was induced with 0.3% xylose. Pictures were taken after 1 h of antibiotic exposure. Two images of the same field of view were recorded 30 s apart and overlaid in ImageJ to visualize MreB mobility. A perfect overlap (yellow) indicates stalled MreB movement, while distinct red and green foci are indicative of MreB mobility. Scale bar 2 μm.
Fig. S70: MreB motility in B. subtilis MW10 after treatment with different cell wall synthesis inhibitors. Expression of GFP-MreB was induced with 0.3% xylose. Cells were treated with 1x […]
Two images of the same field of view were recorded 30 sec apart and overlaid in ImageJ to visualize MreB mobility. A perfect overlap (yellow) indicates stalled MreB movement while distinct red and green spots are indicative of MreB mobility. Scale bar 2 µm.

[6] = system: MurG in B. subtilis TNVS175; test: MurG localization; format: cell-based, Bacillus subtilis; conditions: 1x MIC; 30 min (vancomycin) or 1 h;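 note: normal MurG forms small membrane spots and peptidoglycan inhibition gives large clusters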
[7] = system: cell wall biosynthesis in B. subtilis DSM402; test: Summary of cell wall synthesis experiments; format: cell-based, Bacillus subtilis
B. subtilis DSM402 [8] = conditions: Table 2; cells treated with 1x MIC
E. coli [9] = system: E. coli
[10] = system: MraY in B. subtilis TNVS284; test: MraY localization; conditions: 1x MIC; 30 min (vancomycin) or 1 h
[11] = system: PbpB in B. subtilis EKB46; test: PbpB localization; conditions: 1x MIC; 30 min (vancomycin) or 1 h
[12] = system: PonA in B. subtilis TNVS45; test: PonA localization; conditions: 1x MIC; 30 min (vancomycin) or 1 h
B. subtilis DSM402 [13] = test: microbe, parasite or virus in culture; conditions: Bacillus subtilis, DSM402, read-out: concentration (MIC against B. subtilis DSM402)
E. coli [14] = test: microbe, parasite or virus in culture; conditions: Escherichia coli, read-out: MICC (MIC of the test compound alone)
E. coli BCB472 = test: GlpT localization (inner membrane) in E. coli BCB472; conditions: 1x MIC, 1 h; GFP-tagged membrane protein
B. subtilis DSM402 [15] = test: Peptidoglycan integrity assay (acetic acid/methanol fixation); conditions: 1x MIC; 30 min (cell wall inhibitors) or 60 min
[16] = 1x MIC, 1 h, indicates cell lysis
[17] = interpretation of BCP in E. coli
[18] = interpretation of BCP in B. subtilis

T2 sequence (P0AFI2 whole entry): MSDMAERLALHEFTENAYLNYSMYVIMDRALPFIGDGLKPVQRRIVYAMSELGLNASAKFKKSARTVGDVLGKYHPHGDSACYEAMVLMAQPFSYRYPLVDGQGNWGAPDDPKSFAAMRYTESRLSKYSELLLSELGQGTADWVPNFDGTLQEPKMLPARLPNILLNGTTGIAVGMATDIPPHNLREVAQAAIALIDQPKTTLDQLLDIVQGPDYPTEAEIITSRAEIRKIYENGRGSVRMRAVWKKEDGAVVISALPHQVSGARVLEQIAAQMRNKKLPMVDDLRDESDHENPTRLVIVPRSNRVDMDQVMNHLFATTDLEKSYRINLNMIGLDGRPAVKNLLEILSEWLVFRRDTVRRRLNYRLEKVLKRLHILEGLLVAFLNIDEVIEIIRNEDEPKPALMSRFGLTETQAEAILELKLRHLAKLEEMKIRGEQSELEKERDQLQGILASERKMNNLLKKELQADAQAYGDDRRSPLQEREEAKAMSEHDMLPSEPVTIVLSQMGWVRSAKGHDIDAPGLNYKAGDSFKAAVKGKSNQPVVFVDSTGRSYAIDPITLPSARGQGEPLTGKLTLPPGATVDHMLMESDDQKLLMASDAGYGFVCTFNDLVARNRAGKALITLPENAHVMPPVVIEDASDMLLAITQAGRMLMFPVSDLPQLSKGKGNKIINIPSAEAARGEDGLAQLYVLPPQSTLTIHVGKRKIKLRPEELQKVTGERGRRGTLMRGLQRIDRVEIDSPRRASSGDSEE
T2 sequence (P20083 whole entry): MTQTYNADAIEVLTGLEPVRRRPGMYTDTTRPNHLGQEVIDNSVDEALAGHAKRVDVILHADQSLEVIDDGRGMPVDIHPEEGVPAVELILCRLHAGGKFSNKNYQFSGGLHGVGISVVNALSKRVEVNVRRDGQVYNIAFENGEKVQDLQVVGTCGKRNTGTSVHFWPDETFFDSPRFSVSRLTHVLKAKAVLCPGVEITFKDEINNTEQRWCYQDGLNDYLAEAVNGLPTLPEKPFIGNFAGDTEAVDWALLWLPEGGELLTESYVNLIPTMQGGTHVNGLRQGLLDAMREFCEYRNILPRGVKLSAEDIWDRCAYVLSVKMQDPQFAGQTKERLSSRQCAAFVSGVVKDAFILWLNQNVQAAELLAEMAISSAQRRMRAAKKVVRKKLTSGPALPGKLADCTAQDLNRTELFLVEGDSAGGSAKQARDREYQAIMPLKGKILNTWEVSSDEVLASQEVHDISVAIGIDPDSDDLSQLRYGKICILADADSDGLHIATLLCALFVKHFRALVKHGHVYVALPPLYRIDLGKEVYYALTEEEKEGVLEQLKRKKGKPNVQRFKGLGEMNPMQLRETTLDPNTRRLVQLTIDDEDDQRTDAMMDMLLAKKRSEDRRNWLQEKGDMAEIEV
T1 sequence (P0AES4 whole entry, one chain of several): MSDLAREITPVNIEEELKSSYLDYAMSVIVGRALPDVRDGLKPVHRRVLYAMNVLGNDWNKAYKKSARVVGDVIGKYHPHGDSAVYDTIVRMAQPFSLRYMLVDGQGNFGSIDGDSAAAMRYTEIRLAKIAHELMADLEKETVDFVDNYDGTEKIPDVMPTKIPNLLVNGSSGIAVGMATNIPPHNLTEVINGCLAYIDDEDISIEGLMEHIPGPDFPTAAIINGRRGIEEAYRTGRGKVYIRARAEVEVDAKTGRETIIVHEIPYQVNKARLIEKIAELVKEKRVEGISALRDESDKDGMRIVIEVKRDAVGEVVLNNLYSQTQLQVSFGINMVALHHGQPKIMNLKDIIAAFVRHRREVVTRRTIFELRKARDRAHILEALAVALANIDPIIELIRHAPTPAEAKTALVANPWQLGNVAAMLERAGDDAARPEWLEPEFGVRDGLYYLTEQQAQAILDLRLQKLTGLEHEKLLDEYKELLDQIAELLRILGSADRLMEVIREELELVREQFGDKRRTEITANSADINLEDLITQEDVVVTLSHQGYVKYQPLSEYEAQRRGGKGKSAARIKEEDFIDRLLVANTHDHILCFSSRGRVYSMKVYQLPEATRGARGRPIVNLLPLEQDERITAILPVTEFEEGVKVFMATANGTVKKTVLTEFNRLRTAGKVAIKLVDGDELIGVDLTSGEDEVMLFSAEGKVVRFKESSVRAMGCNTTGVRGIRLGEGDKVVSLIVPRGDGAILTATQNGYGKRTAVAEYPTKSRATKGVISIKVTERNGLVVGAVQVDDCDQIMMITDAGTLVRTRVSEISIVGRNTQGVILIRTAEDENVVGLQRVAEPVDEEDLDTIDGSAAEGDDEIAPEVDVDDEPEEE

In the case of `CCn1cc(C(=O)O)c(=O)c2cc(F)c(N3CCN(CNc4ccc([N+](=O)[O-])cc4)CC3)cc21` [compound 21], the MIC (E. coli (W3110); read-out: concentration (MIC against E. coli W3110)) is reported as 0.266 µM, the MIC (E. coli (W3110); E. coli W3110, converted from 0.266 μM, read-out: MIC) is reported as 0.125 µg/mL and the MIC (E. coli (W3110); Gram-negative strain, average of duplicate experiments, read-out: MIC E. coli (W3110)) is reported as 0.266 µM. The MIC (E. coli (W3110); Tab. S10, topoisomerase IV side, strain not given, values equal E. coli W3110 of Table 1, read-out: MIC) was 0.266 µM, the MIC [1] was 17 µM (≈ 8 µg/mL) and the MIC (P. aeruginosa (PAO1)) was 2.13 µM (≈ 1 µg/mL). For the same molecule, the MIC [2] was 4.26 µM (≈ 2 µg/mL), the MIC (S. aureus (CCUG1800T); Tab. S10, DNA gyrase side, strain not given, values equal S. aureus CCUG1800T of Table 1, read-out: MIC) was 2.13 µM (≈ 1 µg/mL) and the MIC (S. aureus (CCUG1800T); read-out: MIC S. aureus (CCUG1800T)) was 2.13 µM (≈ 1 µg/mL). For the same molecule, the MIC [3] was 34.1 µM (≈ 16 µg/mL), the MIC (E. faecalis (ATCC 19433)) was 2.13 µM (≈ 1 µg/mL) and the MIC [4] was 6.39 µM (≈ 3 µg/mL). For the same molecule, the inhibition at 10 µM (E. coli DNA gyrase) was 77.9%, the inhibition at 10 µM (E. coli topoisomerase IV) was 45.5% and the DAPI (E. coli W3110; 1x MIC, 1 h, DNA condensation) was “condensed”. The phase contrast (E. coli W3110; [16]) was “dark”, the FM4-64 (E. coli W3110; 1x MIC, 1 h, membrane stain) was “Smooth” and the gyrase inhibition (E. coli W3110; [17]) was “yes”. The membrane damage (E. coli W3110; [17]) was “no”, the DAPI (B. subtilis DSM402 [5]; 1x MIC, 1 h, DNA condensation) was “condensed” and the phase contrast (B. subtilis DSM402 [5]; [16]) was “dark”. For the same molecule, the FM4-64 (B. subtilis DSM402 [5]; 1x MIC, 1 h, membrane stain) was “smooth”, the gyrase inhibition (B. subtilis DSM402 [5]; [18]) was “yes” and the membrane damage (B. subtilis DSM402 [5]; [18]) was “no”. For the same molecule, the MreB mobility (MreB in B. subtilis MW10) was “much smaller clusters and more clusters per cell; also recorded: mobile with static foci”, the “protein localization MurG” value [6] was “only visible in the proximity of the cell poles; also recorded: polar spotty” and the “CWB inhibited?” value [7] was “yes ^b”. For the same molecule, the “μM (concentration used, 1x MIC)” value (B. subtilis DSM402 [8]) was 2.13 µM, the “FICC (fractional inhibitory concentration of the test compound)” value (E. coli [9]; MICCcheckerboard/MICC) was 0.0039 and the Outcome (E. coli [9]; checkerboard with mupirocin) was “additive (>0.5 to ≤4.0 as additive (no interaction))”. For the same molecule, the “FICM (MICMcheckerboard/MICM)” value (E. coli [9]; mupirocin alone 64 µg/mL) was 1, the “FICI (fractional inhibitory concentration index)” value (E. coli [9]; with mupirocin, FICC+FICM) was 1.004 and the “protein localization MraY” value [10] was “neither compound affected the localization; also recorded: rough”. For the same molecule, the “protein localization PbpB” value [11] was “neither compound affected the localization; also recorded: smooth”, the “protein localization PonA” value [12] was “neither compound affected the localization; also recorded: septal” and the MIC (B. subtilis DSM402 [13]) was 2.13 µM (≈ 1 µg/mL). The MIC (E. coli [14]) was 0.125 µg/mL, the GlpT (E. coli BCB472) was “Smooth” and the PG integrity (B. subtilis DSM402 [15]) was “came close to the cutoff value; also recorded: Intact”.
